Experimental data as given in patent US7915293B2, “Ubiquitin ligase inhibitors” (Rigel Pharmaceuticals, Inc., priority 2003, dated 2011).

Each compound was assayed against E3 (His-APC11/APC2-"APC") (Homo sapiens, UniProt Q9NYG5+Q9UJX6) (assay: Plate-based E3 ligase assay (APC FLAG), auto-ubiquitination). Conditions: 8 concentrations tested.
Assay type: biochemical
Set-up: key: “+” indicates that the compound exibits inhibitory activity; “−” indicates that low or no inhibitory activity was observed
Experimental: E3 (His-APC11/APC2-“APC”) auto-ubiquitination was measured as described in U.S. patent application Ser. No. 09/826,312 (Publication No. US-2002-0042083-A1), which is incorporated herein in its entirety. Details of the protocol are described below. Activity in the presence of the compound was determined relative to a parallel control in which only DMSO was added. Values of the IC50 were typically determined using 6 or 8 different concentrations of the compound, although as few as 2 concentrations may be used to approximate the IC50 value.
Nickel-coated 96-well plates (Pierce 15242) were blocked for 1 hour with 100 μl of blocking buffer at room temperature. The plates were washed 4 times with 225 μl of 1×PBS and 80 μl of the reaction buffer were added that contained 100 ng/well of Flag-ubiquitin. To this, 10 μl of the test compound diluted in DMSO were added. After the test compound was added, 10 μl of E1 (human), E2 (Ubch5c), and APC in Protein Buffer was added to obtain a final concentration of 5 ng/well of E1, 20 ng/well of E2 and 100 ng/well of APC. The plate were shaken for 10 minutes and incubated at room temperature for 1 hour. After incubation, the plates were washed 4 times with 225 μl of 1×PBS and 100 μl/well of Antibody Mix were added to each well. The plates were incubate at room temperature for another hour after which they were washed 4 times with 225 μl of 1×PBS and 100 μl/well of Lumino substrate were added to each well. The luminescence was measured by using a BMG luminescence microplate reader.
To prepare the Blocking Buffer (1 liter; 1% Casein in 1×PBS), 10 grams of Casein (Hammersten Grade Casein from Gallard-Schlesinger Inc. #440203) were placed into 1 liter of 1×PBS, stirred on a hot plate and kept between 50-60° C. for an hour. The buffer was allowed to cool to room temperature and then filtered using a Buchner Funnel (Buchner filter funnel 83 mm 30310-109) and Whatman filter paper (Whatman Grade No. 1 Filter paper 28450-070). It was stored at 4° C. until used.
The reaction buffer consisted of 62.5 mM Tris pH 7.6 (Trizma Base—Sigma T-8524), 3 mM MgCl2 (Magnesium Chloride—Sigma M-2393), 1 mM DTT (Sigma D-9779), 2.5 mM ATP (Roche Boehringer Mann Corp. 635-316), 100 ng/well of Flag-ubiquitin, 0.1% BSA (Sigma A-7906), and 0.05% Tween-20 (Sigma P-7949).
The Protein Buffer consisted of 20 mM Tris pH 7.6, 10% glycerol (Sigma G-5516) and 1 mM DTT.
The antibody mix consisted of 0.25% BSA (Sigma A-7906) in 1×PBS, 1/50,000 anti-Flag (Sigma F-3165), 1/100,000 of anti-Mouse IgG-HRP (Jackson Immunoresearch #115-035-146).
The substrate mix consisted of SuperSignal Substrate from Pierce (catalog number 37070ZZ) and was prepared by mixing 100 ml of the peroxide solution, 100 ml of the enhancer solution and 100 ml of Milli-Q® water.

Sequence of E3 (His-APC11/APC2-"APC") (Q9NYG5 whole entry): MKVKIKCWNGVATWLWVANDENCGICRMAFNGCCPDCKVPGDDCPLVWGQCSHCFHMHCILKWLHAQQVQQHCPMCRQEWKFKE
Sequence of E3 (His-APC11/APC2-"APC") (Q9UJX6 whole entry): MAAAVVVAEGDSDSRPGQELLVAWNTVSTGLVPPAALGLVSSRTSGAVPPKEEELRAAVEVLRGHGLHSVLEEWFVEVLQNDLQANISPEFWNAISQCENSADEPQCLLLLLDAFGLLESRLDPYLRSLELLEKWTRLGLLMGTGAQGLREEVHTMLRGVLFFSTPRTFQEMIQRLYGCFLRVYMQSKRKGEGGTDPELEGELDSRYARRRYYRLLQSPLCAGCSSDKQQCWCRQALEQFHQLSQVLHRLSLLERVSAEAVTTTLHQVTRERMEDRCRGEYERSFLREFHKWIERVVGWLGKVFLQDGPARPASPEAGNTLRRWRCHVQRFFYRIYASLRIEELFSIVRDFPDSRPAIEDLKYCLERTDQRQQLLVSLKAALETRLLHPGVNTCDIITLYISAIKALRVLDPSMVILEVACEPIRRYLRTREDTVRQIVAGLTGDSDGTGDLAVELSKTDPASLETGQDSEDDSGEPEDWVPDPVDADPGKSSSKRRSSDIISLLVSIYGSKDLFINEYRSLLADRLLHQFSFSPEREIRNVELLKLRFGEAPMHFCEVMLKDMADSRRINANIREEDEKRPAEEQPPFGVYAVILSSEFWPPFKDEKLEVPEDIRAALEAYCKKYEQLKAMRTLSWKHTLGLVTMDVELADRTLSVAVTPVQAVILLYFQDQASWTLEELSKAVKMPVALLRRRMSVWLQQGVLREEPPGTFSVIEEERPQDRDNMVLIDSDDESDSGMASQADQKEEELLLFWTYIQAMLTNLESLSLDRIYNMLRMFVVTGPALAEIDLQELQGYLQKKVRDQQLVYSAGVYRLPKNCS

APC Flag 8 pt | SMILES
− | O=[N+]([O-])c1ccc(Oc2c(Cl)cc(S(=O)(=O)NCC3CCCO3)cc2Cl)c(Cl)c1 (centres unmarked) [Example 121, 3,5-dichloro-4-(2-chloro-4-nitrophenoxy)-N-(tetrahydrofuran-2-ylmethyl)benzene-sulfonamide]
+ | O=C1CCC(CCCNS(=O)(=O)c2cc(Cl)c(Oc3ccc([N+](=O)[O-])cc3Cl)c(Cl)c2)N1 (centres unmarked) [Example 122, 3,5-dichloro-4-(2-chloro-4-nitrophenoxy)-N-[3-(5-oxopyrrolidin-2-yl)propyl] benzenesulfonamide]
− | O=[N+]([O-])c1ccc(Oc2c(Cl)cc(S(=O)(=O)NCc3ccc(Cl)cc3)cc2Cl)c(Cl)c1 [Example 125, 3,5-dichloro-N-(4-chlorobenzyl)-4-(2-chloro-4-nitrophenoxy)benzenesulfonamide]
+ | O=[N+]([O-])c1ccc(Oc2c(Cl)cc(S(=O)(=O)NCCc3ccc(Cl)cc3Cl)cc2Cl)c(Cl)c1 [Example 127, 3,5-dichloro-4-(2-chloro-4-nitrophenoxy)-N-[2-(2,4-dichlorophenyl)ethyl]benzene-sulfonamide]
− | O=[N+]([O-])c1ccc(Oc2c(Cl)cc(S(=O)(=O)NC3CCNCC3)cc2Cl)c(Cl)c1 [Example 130, 3,5-dichloro-4-(2-chloro-4-nitrophenoxy)-N-piperidin-4-ylbenzenesulfonamide]
+ | CN(C)CCCNS(=O)(=O)c1cc(Cl)c(Oc2ccc([N+](=O)[O-])cc2Cl)c(Cl)c1 [Example 131]
− | O=[N+]([O-])c1ccc(Oc2c(Cl)cc(S(=O)(=O)NCCN3CCOCC3)cc2Cl)c(Cl)c1 [Example 132, 3,5-dichloro-4-(2-chloro-4-nitrophenoxy)-N-(2-morpholin-4-ylethyl)benzenesulfonamide]
− | O=[N+]([O-])c1ccc(Oc2c(Cl)cc(S(=O)(=O)NCc3ccncc3)cc2Cl)c(Cl)c1 [Example 133, 3,5-dichloro-4-(2-chloro-4-nitrophenoxy)-N-(pyridin-4-ylmethyl)benzenesulfonamide]
+ | CNS(=O)(=O)c1cc(Cl)c(Oc2ccc([N+](=O)[O-])cc2Cl)c(Cl)c1 [Example 135, 3,5-dichloro-4-(2-chloro-4-nitrophenoxy)-N-methylbenzenesulfonamide]
+ | Cc1cc(C)c(NS(=O)(=O)c2cc(Cl)c(Oc3ccc([N+](=O)[O-])cc3Cl)c(Cl)c2)c(C)c1 [Example 144, 3,5-dichloro-4-(2-chloro-4-nitrophenoxy)-N-mesitylbenzenesulfonamide]
+ | O=C(NCC1CC1)c1ccc(NS(=O)(=O)c2cc(Cl)c(Oc3ccc([N+](=O)[O-])cc3Cl)c(Cl)c2)cc1 [Example 152, N-(cyclopropylmethyl)-4-({[3,5-dichloro-4-(2-chloro-4-nitrophenoxy)phenyl]sulfonyl}amino)benzamide]
+ | Cc1cccc(NS(=O)(=O)c2cc(Cl)c(Oc3ccc([N+](=O)[O-])cc3Cl)c(Cl)c2)c1 [Example 161, 3,5-dichloro-4-(2-chloro-4-nitrophenoxy)-N-(3-methylphenyl)benzenesulfonamide]
+ | O=[N+]([O-])c1ccc(Oc2c(Cl)cc(S(=O)(=O)Nc3ccc4c(c3)OCO4)cc2Cl)c(Cl)c1 [Example 162, N-1,3-benzodioxol-5-yl-3,5-dichloro-4-(2-chloro-4-nitrophenoxy)benzenesulfonamide]
+ | COc1cccc(NS(=O)(=O)c2cc(Cl)c(Oc3ccc([N+](=O)[O-])cc3Cl)c(Cl)c2)c1 [Example 163, 3,5-dichloro-4-(2-chloro-4-nitrophenoxy)-N-(3-methoxyphenyl)benzenesulfonamide]
+ | N#Cc1cccc(NS(=O)(=O)c2cc(Cl)c(Oc3ccc([N+](=O)[O-])cc3Cl)c(Cl)c2)c1 [Example 169, 3,5-dichloro-4-(2-chloro-4-nitrophenoxy)-N-(3-cyanophenyl)benzenesulfonamide]

More lines, now with the values behind:

SMILES | APC Flag 8 pt
O=S(=O)(c1ccc(Oc2ccc(Cl)cc2Cl)cc1F)N1CCCCC1 [Example 119, 1-{[4-(2,4-dichlorophenoxy)-2-fluorophenyl]sulfonyl)piperidine] | +
O=[N+]([O-])c1ccc(Oc2c(Cl)cc(S(=O)(=O)NCCCOc3cc(Cl)cc(Cl)c3)cc2Cl)c(Cl)c1 [Example 126, 3,5-dichloro-4-(2-chloro-4-nitrophenoxy)-N-[3-(3,5-dichlorophenoxy)propyl] benzenesulfonamide] | −
COc1ccc(CCNS(=O)(=O)c2cc(Cl)c(Oc3ccc([N+](=O)[O-])cc3Cl)c(Cl)c2)cc1 [Example 129, 3,5-dichloro-4-(2-chloro-4-nitrophenoxy)-N-[2-(4-methoxyphenyl)ethyl]benzene-sulfonamide] | +
N#Cc1ccc(N(S(=O)(=O)c2cc(Cl)c(Oc3ccc([N+](=O)[O-])cc3Cl)c(Cl)c2)S(=O)(=O)c2cc(Cl)c(Oc3ccc([N+](=O)[O-])cc3Cl)c(Cl)c2)cc1 [Example 136, 3,5-dichloro-4-(2-chloro-4-nitrophenoxy)-N-(4-cyanophenyl)-N-(1,3-dichloro-2-(2-chloro-4-nitrophenoxy)-5-sulfonylbenzene)-benzenesulfonamide] | +
Cc1ccc(N(S(=O)(=O)c2cc(Cl)c(Oc3ccc([N+](=O)[O-])cc3Cl)c(Cl)c2)S(=O)(=O)c2cc(Cl)c(Oc3ccc([N+](=O)[O-])cc3Cl)c(Cl)c2)cc1 [Example 137, 3,5-dichloro-4-(2-chloro-4-nitrophenoxy)-N-(4-methylphenyl)-N-(1,3-dichloro-2-(2-chloro-4-nitrophenoxy)-5-sulfonylbenzene) benzenesulfonamide] | +
O=[N+]([O-])c1ccc(N(S(=O)(=O)c2cc(Cl)c(Oc3ccc([N+](=O)[O-])cc3Cl)c(Cl)c2)S(=O)(=O)c2cc(Cl)c(Oc3ccc([N+](=O)[O-])cc3Cl)c(Cl)c2)cc1 [Example 138, 3,5-dichloro-4-(2-chloro-4-nitrophenoxy)-N-(1,3-dichloro-2-(2-chloro-4-nitrophenoxy)-5-sulfonylbenzene)-N-(4-nitrophenyl) benzenesulfonamide] | +
N=C(N)NCCC[C@H](NS(=O)(=O)c1cc(Cl)c(Oc2ccc([N+](=O)[O-])cc2Cl)c(Cl)c1)C(N)=O [Example 141, N^2-{[3,5-dichloro-4-(2-chloro-4-nitrophenoxy)phenyl]sulfonyl}argininamide] | −
Cc1cc(C)c(N(S(=O)(=O)c2cc(Cl)c(Oc3ccc([N+](=O)[O-])cc3Cl)c(Cl)c2)S(=O)(=O)c2cc(Cl)c(Oc3ccc([N+](=O)[O-])cc3Cl)c(Cl)c2)c(C)c1 [Example 142, 3,5-dichloro-4-(2-chloro-4-nitrophenoxy)-N-mesityl-N-(1,3-dichloro-2-(2-chloro-4-nitrophenoxy)-5-sulfonylbenzene)benzene-sulfonamide] | +
Cc1c(Cl)cccc1N(S(=O)(=O)c1cc(Cl)c(Oc2ccc([N+](=O)[O-])cc2Cl)c(Cl)c1)S(=O)(=O)c1cc(Cl)c(Oc2ccc([N+](=O)[O-])cc2Cl)c(Cl)c1 [Example 143, 3,5-dichloro-N-(3-chloro-2-methylphenyl)-4-(2-chloro-4-nitrophenoxy)-N-(1,3-dichloro-2-(2-chloro-4-nitrophenoxy)-5-sulfonylbenzene)benzenesulfonamide] | +
COc1ccc(NS(=O)(=O)c2cc(Cl)c(Oc3ccc([N+](=O)[O-])cc3Cl)c(Cl)c2)c(OC)c1OC [Example 157, 3,5-dichloro-4-(2-chloro-4-nitrophenoxy)-N-(2,3,4-trimethoxyphenyl)benzenesulfonamide] | +
O=[N+]([O-])c1ccc(Oc2c(Cl)cc(S(=O)(=O)NC(=S)Nc3cccnc3)cc2Cl)c(Cl)c1 [Example 158, 3,5-dichloro-4-(2-chloro-4-nitrophenoxy)-N-[(pyridin-3-ylamino)carbonothioyl] benzenesulfonamide] | −
